Like-named read-outs stand apart in the source and are kept apart here.
Columns and labels:
p45MEK (GST-MEK) = p45MEK (GST-MEK) (Homo sapiens, UniProt Q02750); assay: Cascade assay for inhibitors of the MAP kinase pathway (in vitro); type: biochemical
Experimental: Incorporation of ^32P into myelin basic protein (MBP) was assayed in the presence of a glutathione S-transferase fusion protein containing p44MAP kinase (GST-MAPK) and a glutathione S-transferase fusion protein containing p45MEK (GST-MEK). The assay solution contained 20 mM HEPES, pH 7.4, 10 mM MgCl2, 1 mM MnCl2, 1 mM EGTA, 50 μM [γ-^32P]ATP, 10 μg GST-MEK, 0.5 μg GST-MAPK and 40 μg MBP in a final volume of 100 μL. […] Compounds were assessed at 10 μM for ability to inhibit incorporation of ^32P.
To ascertain whether compounds were inhibiting GST-MEK or GST MAPK, two additional protocols were employed. In the first protocol, compounds were added to tubes containing GST-MEK, followed by addition of GST-MAPK, MBP and [γ-^32P]ATP. In the second protocol, compounds were added to tubes containing both GST-MEK and GST-MAPK, followed by MBP and [γ-^32P]ATP.

[1] = tested on: activation of MAP kinase in whole cells; assay: Whole cell MAP kinase assay (in vivo, cell culture); type: cell-based
Experimental: To determine if compounds were able to block activation of MAP kinase in whole cells, the following protocol was used: Cells were plated in multi-well plates and grown to confluence. Cells were then serum-deprived overnight. Cells were exposed to the desired concentrations of compound or vehicle (DMSO) for 30 minutes, followed by addition of a growth factor, eg, PDGF (100 ng/mL). After a 5-minute treatment with the growth factor, cells were washed with PBS, then lysed in a buffer consisting of 70 mM NaCl, 10 mM HEPES (pH 7.4), 50 mM glycerol phosphate, and 1% Triton X-100. Lysates were clarified by centrifugation at 13,000×g for 10 minutes. Five micrograms of the resulting supernatants were incubated with 10 μg microtubule associated protein-2 (Map2) for 15 minutes at 30° C. in a final volume of 25 μL containing 50 mM Tris (pH 7.4), 10 mM MgCl2, 2 mM EGTA and 30 μM [γ-^32P]ATP. Reactions were terminated by addition of Laemmli sample buffer. Phosphorylated Map2 was resolved on 7.5% acrylamide gels and incorporated radioactivity determined by autoradiography and subsequent excision of the bands followed by scintillation counting.

melting point [°C] | IC50 (p45MEK (GST-MEK)) [nM] | IC50 [1] [nM] | Molecule | IC50 ([1]; cell culture) [nM]
80 to 90 | 3 | – | Cc1cc(I)ccc1Nc1c(C(=O)NO)cc(Br)c(F)c1F [Example 2, 5-Bromo-3,4-difluoro-N-hydroxy-2-(4-iodo-2-methyl-phenylamino)-benzamide] | –
61 to 75 | 7 | – | Cc1cc(I)ccc1Nc1cc(F)ccc1C(=O)NO [Example 1, 4-Fluoro-N-hydroxy-2-(4-iodo-2-methyl-phenylamino)-benzamide] | –
– | 8 | > 1000 | Cc1cc(I)ccc1Nc1c(C(=O)NOCC2CCCC2)cc(Br)c(F)c1F [Example 101, 5-Bromo-N-cyclopentylmethoxy-3,4-difluoro-2-(4-iodo-2-methyl-phenylamino)-benzamide] | –
– | 18 | – | 5-Bromo-N-cyclopropylmethoxy-3,4-difluoro-2-(4-iodo-2-methyl-phenylamino) [Example 58] | 14
– | 3 | 40 | O=C(NO)c1ccc([N+](=O)[O-])cc1Nc1ccc(I)cc1Cl [Example 82, 2-(2-Chloro-4-iodo-phenylamino)-N-hydroxy-4-nitro-benzamide] | –
– | 4 | 200 | Cc1cc(I)ccc1Nc1c(C(=O)NOCC2CCC2)cc(Br)c(F)c1F [Example 102, 5-Bromo-N-cyclobutylmethoxy-3,4-difluoro-2-(4-iodo-2-methyl-phenylamino)-benzamide] | –

Molecule | melting point [°C] | IC50 (p45MEK (GST-MEK)) [nM] | IC50 [1] [nM] | IC50 ([1]; cell culture) [nM]
Cc1cc(I)ccc1Nc1c(C(=O)NOCC(C)C)cc(Br)c(F)c1F [Example 99, 5-Bromo-3,4-difluoro-2-(4-iodo-2-methyl-phenylamino)-N-isobutoxy-benzamide] | – | 18 | 500 | –
4-Fluoro-N-hydroxy-2-(4-cluoro-2-methyl-phenylamino)-benzamide [Example 11] | – | 334 | – | 500

— patent US7169816B2, “4-bromo or 4-iodo phenylamino benzhydroxamic acid derivatives and their use as MEK inhibitors” (Warner-Lambert Company, priority 1997, dated 2007)
